Consider 41 compounds from ChEMBL document CHEMBL1629460, “Image-based high-throughput drug screening targeting the intracellular stage of Trypanosoma cruzi, the agent of Chagas' disease” (Antimicrob Agents Chemother, 2010).

pEC50: −log10 of the molar value.

The nature of test [1]: Cytotoxicity against BESM cells after 88 hrs by HTS assay. In kind it is ADME, cell-based. Conditions: Bos taurus.
A short description of test [2]: Selectivity window, ratio of EC50 for BESM cells to EC50 for Trypanosoma cruzi amastigotes infected in BESM cells. The arrangement: reference not given here.
The subject of a further test is Trypanosoma cruzi. As to the kind of experiment: Antitrypanosomal activity against Trypanosoma cruzi amastigotes infected in BESM cells measured after 88 hrs postinfection by HTS assay. In kind it is functional, organism-based.

With `COc1cc2nc(N3CCN(C(=O)c4ccco4)CC3)nc(N)c2cc1OC` [PRAZOSIN], the pEC50 is 4.80 in test [1] and 4.92 in the test with Trypanosoma cruzi. Further, the “Ratio EC50” value in test [2] is 1.3.
As to `COc1ccccc1OCCNCC(O)COc1cccc2[nH]c3ccccc3c12` (stereo not drawn) [CARVEDILOL], the pEC50 in test [1] was 4.51; in the test on Trypanosoma cruzi, 5.10. For the same compound, the “Ratio EC50” value in test [2] is given as 3.9.
In the case of `CC(C)N1CCN(c2ccc(OCC3COC(Cn4cncn4)(c4ccc(Cl)cc4Cl)O3)cc2)CC1` (stereo not drawn) [TERCONAZOLE], the pEC50 in test [1] was 4.62; in the test on Trypanosoma cruzi, over 6.40. Further, the “Ratio EC50” value in test [2] is reported as over 60.
On to `O=C(N/N=C/c1ccc([N+](=O)[O-])o1)c1cc([N+](=O)[O-])cc([N+](=O)[O-])c1O` [NIFURSOL], for which the pEC50 was under 4.30 in test [1] and 4.82 in the test with Trypanosoma cruzi. For the same compound, the “Ratio EC50” value in test [2] was over 3.3.
For `CCCCOc1ccc(C(=O)CCN2CCCCC2)cc1.Cl` [DYCLONINE HYDROCHLORIDE] the same measures were 4.44, 4.82 and 2.4.
Take `CC(=O)O[C@@]12CO[C@@H]1C[C@H](O)[C@@]1(C)C(=O)[C@H](O)C3=C(C)[C@@H](OC(=O)[C@H](O)[C@@H](NC(=O)OC(C)(C)C)c4ccccc4)C[C@@](O)([C@@H](OC(=O)c4ccccc4)[C@H]21)C3(C)C.O.O.O` [DOCETAXEL]: the pEC50 is 4.36 in test [1] and over 6.10 with Trypanosoma cruzi. Further, the “Ratio EC50” value in test [2] was over 56.
For the compound `c1ccc2c(c1)Nc1ccccc1S2` [PHENOTHIAZINE], the pEC50 is 4.59 in test [1] and 5.22 in the test with Trypanosoma cruzi. Further, in test [2], the “Ratio EC50” value is 4.3.
Turning to `CN1CCCC(n2nc(Cc3ccc(Cl)cc3)c3ccccc3c2=O)CC1` (stereo not drawn) [AZELASTINE], the pEC50 was 4.31 in test [1] and 6.00 in the test on Trypanosoma cruzi. For the same compound, the “Ratio EC50” value in test [2] amounted to 49.
Take `CCC(=O)O[C@]1(C(=O)CCl)[C@@H](C)C[C@H]2[C@@H]3CCC4=CC(=O)C=C[C@]4(C)[C@@]3(F)[C@@H](O)C[C@@]21C` [CLOBETASOL PROPIONATE]: the values for the pEC50 (in test [1]; in the test on Trypanosoma cruzi) were 4.39 and 4.60, respectively. For the same compound, in test [2], the “Ratio EC50” value is recorded as 1.6.
`CCC1=C[C@@H]2CN(C1)Cc1c([nH]c3ccccc13)[C@@](C(=O)OC)(c1cc3c(cc1OC)N(C)[C@H]1[C@@](O)(C(=O)OC)[C@H](OC(C)=O)[C@]4(CC)C=CCN5CC[C@]31[C@@H]54)C2` [VINORELBINE]: the results for the pEC50 (in test [1]; in the test on Trypanosoma cruzi) were under 4.30 and 5.00, respectively. Besides, the “Ratio EC50” value in test [2] is on record as over 5.
`COc1ccc(CN2CCN(C(c3ccc(F)cc3)c3ccc(F)cc3)CC2)c(OC)c1OC` [LOMERIZINE]: the pEC50 is 4.66 in test [1] and 5.05 in the test with Trypanosoma cruzi. Besides, the “Ratio EC50” value in test [2] is given as 2.4.
`OCCN1CCN(CCCN2c3ccccc3Sc3ccc(Cl)cc32)CC1` [PERPHENAZINE]: the pEC50 is 4.89 in test [1] and 5.30 in the test with Trypanosoma cruzi. Further, in test [2], the “Ratio EC50” value was determined as 2.6.
For `O=C(c1ccc(OCCN2CCCCC2)cc1)c1c(-c2ccc(O)cc2)sc2cc(O)ccc12` [RALOXIFENE] the same measures were 4.66, 5.00 and 2.2.
For `CN1C[C@H](CNC(=O)OCc2ccccc2)C[C@@H]2c3cccc4c3c(cn4C)C[C@H]21` [METERGOLINE], the figures for the pEC50 (in test [1]; in the test with Trypanosoma cruzi) were 4.74 and 5.40, respectively. Besides, in test [2], the “Ratio EC50” value was determined as 4.5.
With `OCCN1CCN(CCCN2c3ccccc3Sc3ccc(C(F)(F)F)cc32)CC1` [FLUPHENAZINE], the pEC50 is 4.68 in test [1] and 5.40 with Trypanosoma cruzi. The “Ratio EC50” value in test [2] stood at 5.3.
Regarding `O=C(CCCN1CCC(O)(c2ccc(Cl)cc2)CC1)c1ccc(F)cc1` [HALOPERIDOL], the pEC50 in test [1] is 4.48; in the test on Trypanosoma cruzi it was 5.15. For the same compound, in test [2], the “Ratio EC50” value turned out to be 4.7.
Take `CCOC(=O)N1CCC(=C2c3ccc(Cl)cc3CCc3cccnc32)CC1` [LORATADINE]: the pEC50 is 4.77 in test [1] and 5.05 in the test with Trypanosoma cruzi. For the same compound, the “Ratio EC50” value in test [2] is recorded as 1.9.
`CC(=O)O[C@]1(C(C)=O)CC[C@H]2[C@@H]3C=C(Cl)C4=CC(=O)[C@@H]5C[C@@H]5[C@]4(C)[C@H]3CC[C@@]21C` [CYPROTERONE ACETATE]: the pEC50 in test [1] is under 4.30; in the test on Trypanosoma cruzi, 4.49. Besides, in test [2], the “Ratio EC50” value was over 1.6.
In the same order, the values of `Cc1ccc(NC(=O)c2ccc(CN3CCN(C)CC3)cc2)cc1Nc1nccc(-c2cccnc2)n1` [IMATINIB] are 4.49, 5.05 and 3.6.
On to `CCN(CC)CCOCCC1=CCC2CC1C2(C)C` (stereo not drawn) [MYRTECAINE], for which the pEC50 was 4.62 in test [1] and 4.85 in the test with Trypanosoma cruzi. For the same compound, the “Ratio EC50” value in test [2] turned out to be 1.7.
Turning to `CC(C)CC(N(C)C)C1(c2ccc(Cl)cc2)CCC1` (stereo not drawn) [SIBUTRAMINE], the pEC50 in test [1] is 5.00; in the test on Trypanosoma cruzi, 5.10. Also, the “Ratio EC50” value in test [2] is reported as 1.3.
For `CCc1nn(CCCN2CCN(c3cccc(Cl)c3)CC2)c(=O)n1CCOc1ccccc1` [NEFAZODONE] the same measures were 4.82, 5.10 and 1.9.
For the compound `Cc1c(C)c2c(c(C)c1O)CCC(C)(CN1CCN(c3cc(N4CCCC4)nc(N4CCCC4)n3)CC1)O2` (stereo not drawn), the pEC50 is under 4.30 in test [1] and 4.77 in the test with Trypanosoma cruzi. In test [2], the “Ratio EC50” value is over 2.9.
In the same order, the values of `NC(=O)N/N=C/c1ccc([N+](=O)[O-])o1` [NITROFURAZONE] are under 4.30, 5.10 and over 6.3.
In the case of `O=C(Nc1ccc(Cl)c(Cl)c1)c1cc(Cl)cc(Cl)c1O` [3,3',4',5-TETRACHLOROSALICYLANILIDE], the values for the pEC50 (in test [1]; in the test with Trypanosoma cruzi) were 4.59 and 5.10, respectively. The “Ratio EC50” value in test [2] was 3.3.
In the case of `CNCCC(Oc1ccc(C(F)(F)F)cc1)c1ccccc1` (stereo not drawn) [FLUOXETINE], the pEC50 in test [1] is 4.80; with Trypanosoma cruzi, 5.15. Besides, in test [2], the “Ratio EC50” value is given as 2.3.
Consider `c1ccc(Cn2ccnc2)cc1` [BENZYLIMIDAZOLE], for which the pEC50 in test [1] was under 4.30; in the test with Trypanosoma cruzi, 4.46. In addition, the “Ratio EC50” value in test [2] was over 1.4.
In the case of `CCCCCCCCCCCCC/C=C/[C@@H](O)[C@H](CO)NC(=O)CCCCCCC`, the values for the pEC50 (in test [1]; in the test with Trypanosoma cruzi) were 4.96 and 4.89, respectively. Besides, in test [2], the “Ratio EC50” value stood at 0.8.
In the case of `Cc1ccc(/N=C/N(C)/C=N/c2ccc(C)cc2C)c(C)c1` [AMITRAZ], the pEC50 in test [1] was 4.48; in the test with Trypanosoma cruzi it was 4.80. Moreover, in test [2], the “Ratio EC50” value came to 2.1.
In the same order, the values of `C[C@H]([C@](O)(Cn1cncn1)c1ccc(F)cc1F)S(C)(=O)=O` [GENACONAZOLE] are under 4.30, 4.74 and over 2.8.
For the compound `CN(C)CCCN1c2ccccc2CCc2ccc(Cl)cc21` [CLOMIPRAMINE], the pEC50 in test [1] is under 4.30; with Trypanosoma cruzi, 5.10. For the same compound, the “Ratio EC50” value in test [2] was over 6.3.
On to `Cc1c(O)cccc1C(=O)N[C@@H](CSc1ccccc1)[C@H](O)CN1C[C@H]2CCCC[C@H]2C[C@H]1C(=O)NC(C)(C)C`, for which the pEC50 was 4.49 in test [1] and 4.92 in the test on Trypanosoma cruzi. In addition, the “Ratio EC50” value in test [2] amounted to 2.7.
As for `CC(C)[C@@]1(NC(=O)[C@@H]2C[C@@H]3c4cccc5[nH]cc(c45)C[C@H]3N(C)C2)O[C@@]2(O)[C@@H]3CCCN3C(=O)[C@H](Cc3ccccc3)N2C1=O.CS(=O)(=O)O` [DIHYDROERGOCRISTINE MESYLATE], the figures for the pEC50 (in test [1]; in the test on Trypanosoma cruzi) were 4.33 and 5.30, respectively. The “Ratio EC50” value in test [2] worked out at 9.4.
For `Nc1c2c(nc3ccccc13)CCCC2` [TACRINE], the pEC50 in test [1] was under 4.30; with Trypanosoma cruzi, 4.62. For the same compound, in test [2], the “Ratio EC50” value is on record as over 2.1.
In the same order, the values of `CC(C)[C@H]1C(=O)N2CCC[C@H]2[C@]2(O)O[C@](NC(=O)[C@@H]3C=C4c5cccc6[nH]cc(c56)C[C@H]4N(C)C3)(C(C)C)C(=O)N12` [ERGOCORNINE] are 4.37, 4.74 and 2.4.
On to `C=CCN1CC[C@]23c4c5ccc(O)c4O[C@H]2/C(=N/N=C2\CC[C@@]4(O)[C@H]6Cc7ccc(O)c8c7[C@@]4(CCN6CC=C)[C@H]2O8)CC[C@@]3(O)[C@H]1C5` [NALOXONAZINE], for which the pEC50 was 4.80 in test [1] and 4.77 in the test with Trypanosoma cruzi. The “Ratio EC50” value in test [2] turned out to be 0.9.
For `COc1ccccc1N1CCN(CC(O)COc2cccc3ccccc23)CC1` (stereo not drawn) [NAFTOPIDIL], the pEC50 is 4.74 in test [1] and 4.96 in the test with Trypanosoma cruzi. Further, the “Ratio EC50” value in test [2] was 1.6.
As for `Cc1cc2c(OCC(CNC(C)(C)C)OC(=O)c3ccccc3)cccc2[nH]1` (stereo not drawn) [BOPINDOLOL], the pEC50 in test [1] is under 4.30; in the test with Trypanosoma cruzi, 4.40. For the same compound, in test [2], the “Ratio EC50” value is listed as over 1.3.
With `CN(C)CCCN1c2ccccc2Sc2ccccc21` [PROMAZINE], the pEC50 is 4.48 in test [1] and 4.89 in the test with Trypanosoma cruzi. In addition, the “Ratio EC50” value in test [2] was 2.5.
In the case of `C[C@@H]1C[C@H]2[C@@H]3CCC4=CC(=O)C=C[C@]4(C)C3=CC[C@]2(C)[C@H]1C(=O)CN1CCN(c2cc(N3CCCC3)nc(N3CCCC3)n2)CC1` [TIRILAZAD], the pEC50 in test [1] was under 4.30; with Trypanosoma cruzi, 4.55. Further, the “Ratio EC50” value in test [2] is recorded as over 1.8.
For `CN(C)C(=O)C(CCN1CCC(O)(c2ccc(Cl)cc2)CC1)(c1ccccc1)c1ccccc1` [LOPERAMIDE] the same measures were 4.92, 5.52 and 4.

What is called pEC50 is the negative decadic logarithm of the EC50, by convention in mol/L.
